Like-named read-outs stand apart in the source and are kept apart here.

Assay [1] concerns the target GST-tagged K-Ras mutant / His-tagged hSOS1 (Homo sapiens, UniProt P01116). The assay can be described thus: HTRF assay, K-Ras mutant / SOS1 interaction. Format: binding. The conditions noted are these: read-out: IC50 against mutant Kras. The procedure, abridged:
(§1)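 Compounds tested in duplicate from 10 μM down to 0.01 μM, incubated about 10 min or longer with GST-K-Ras/anti-GST-Eu and His-hSOS1/anti-6His-XL665 in ~5 mM HEPES pH 7.4 buffer with ~150 mM NaCl, DTT, BSA and Igepal. IC50 derived from 665/620 nm emission ratio.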

Assay [2] addresses T1, wildtype Kras / hSOS1 (Homo sapiens, UniProt P01116).
T1 construct: made in house; host or cells: E. coli BL21 (DE3)
The experiment in a line: HTRF assay, wildtype Kras / SOS1 interaction. The conditions noted are these: read-out: IC50 against wildtype Kras. Format: binding. The method in brief: as §1

[3] abbreviates: compound nos. 102-196, general methodology of example 5.

T1 sequence (P01116 1-188 isoform P01116-2): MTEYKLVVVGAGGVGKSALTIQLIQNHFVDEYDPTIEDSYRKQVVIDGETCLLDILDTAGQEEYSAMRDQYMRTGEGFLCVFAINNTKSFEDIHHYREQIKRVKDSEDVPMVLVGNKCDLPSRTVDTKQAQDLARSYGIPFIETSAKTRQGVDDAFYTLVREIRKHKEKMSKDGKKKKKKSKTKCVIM
Chain of GST-tagged K-Ras mutant / His-tagged hSOS1 (P01116 whole entry G12D, form open): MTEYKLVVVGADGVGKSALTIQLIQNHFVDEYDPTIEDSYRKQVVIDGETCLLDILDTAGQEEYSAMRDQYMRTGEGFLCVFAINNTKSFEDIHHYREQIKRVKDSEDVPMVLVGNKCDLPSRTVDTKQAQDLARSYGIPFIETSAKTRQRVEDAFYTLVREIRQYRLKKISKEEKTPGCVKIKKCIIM

The IC50 is the concentration needed to halve the response being measured. `CN1CCC[C@H]1COc1nc(N2CCC(F)C(F)CC2)c2cc(Cl)c(-c3cccc4sc(N)nc34)c(F)c2n1` (stereo partly drawn) [Compound 642, 4-(6-chloro-4-(4,5-difluoro-azepan-1-yl)-8-fluoro-2-(((S)-1-methylpyrrolidin-2-yl)methoxy)quinazolin-7-yl)-benzo[d]thiazol-2-amine]: the IC50 in assay [1] (compound nos. 401-703) was < 500 nM; in assay [2] (compound nos. 401-703), > 500 nM.

`Nc1nc2ccccc2c(-c2ccc3c(N4CC5CCC(C4)N5)nc(OCC45CCCN4CCC5)nc3c2F)c1Cl` [Compound 493, 4-(4-(3,8-diazabicyclo-[3.2.1]octan-3-yl)-8-fluoro-2-((tetrahydro-1H-pyrrol-izin-7a(5H)-yl)methoxy)-quinazolin-7-yl)-3-chloro-quinolin-2-amine]: the IC50 in assay [1] (compound nos. 401-703) is > 500 nM; in assay [2] (compound nos. 401-703), < 500 nM.

For `Nc1nc2c(-c3c(Cl)cc4c(N5[C@@H]6CCC[C@H]5C[C@H](O)C6)nc(OC[C@@]56CCCN5C[C@H](F)C6)nc4c3F)ccc(F)c2s1` [Compound 305, (1R,3R,5S)-9-(7-(2-amino-7-fluorobenzo[d]thiazol-4-yl)-6-chloro-8-fluoro-2-(((2R,7aS)-2-fluorotetra-hydro-1H-pyrrolizin-7a(5H)-yl)methoxy)quinazolin-4-yl)-9-azabicyclo[3.3.1]-nonan-3-ol], the IC50 in assay [1] (compound nos. 301-306) and in assay [2] (compound nos. 301-306) was < 1500 nM each time.

`Nc1cc(-c2c(Cl)cc3c(N4CC5CCC(C4)N5)nc(OCC45CCCN4CCC5)nc3c2F)c2ccccc2n1` [Compound 636, 4-(4-(3,8-diazabicyclo-[3.2.1]octan-3-yl)-6-chloro-8-fluoro-2-((tetrahydro-1H-pyrrolizin-7a(5H)-yl)meth-oxy)quinazolin-7-yl)quin-olin-2-amine]: the IC50 in assay [1] (compound nos. 401-703) and in assay [2] (compound nos. 401-703) was > 500 nM throughout.

For `Nc1nc2c(-c3c(Cl)cc4c(N5CC6CCC(C5)N6)nc(OCC5(CN6CC[C@@H](F)C6)CC5)nc4c3F)ccc(F)c2s1` [Compound 586, 4-(4-(3,8-diazabicyclo-[3.2.1]octan-3-yl)-6-chloro-8-fluoro-2-((1-(((R)-3-fluoropyrrolidin-1-yl)meth-yl)cyclopropyl)methoxy)-quinazolin-7-yl)-7-fluoro-benzo[d]thiazol-2-amine], the IC50 is < 500 nM in assay [1] (compound nos. 401-703) and > 500 nM in assay [2] (compound nos. 401-703).

With `Oc1ccc2ccc(-c3c(Cl)cc4c(N5CC6CCC(C5)N6)nc(OCC56CCCN5CCC6)nc4c3F)cc2c1` [Compound 650, 7-(4-(3,8-diazabicyclo-[3.2.1]octan-3-yl)-6-chloro-8-fluoro-2-((tetrahydro-1H-pyrrolizin-7a(5H)-yl)meth-oxy)quinazolin-7-yl)naph-thalen-2-ol], the IC50 in assay [1] (compound nos. 401-703) and in assay [2] (compound nos. 401-703) was > 500 nM each time.

For `Nc1nc2c(-c3cc4c(=O)n(CCN5CCCC5)nc(N5CCCOCC5)c4cc3Cl)ccc(F)c2s1` [Compound 484, 7-(2-amino-7-fluorobenzo-[d]thiazol-4-yl)-6-chloro-4-(1,4-oxazepan-4-yl)-2-(2-(pyrrolidin-1-yl)ethyl)phthal-azin-1(2H)-one], the IC50 in assay [1] (compound nos. 401-703) was > 500 nM; in assay [2] (compound nos. 401-703) it was < 500 nM.

`N#Cc1c(N)sc2c(F)ccc(-c3c(Cl)cc4c(N5CC6CCC(C5)N6CC5CC5)nc(OC[C@@]56CCCN5C[C@H](F)C6)nc4c3F)c12` [Compound 500, 2-amino-4-(6-chloro-4-((1R,5S)-8-(cyclopropyl-methyl)-3,8-diazabicyclo-[3.2.1]octan-3-yl)-8-fluoro-2-(((2R,7aS)-2-fluorotetra-hydro-1H-pyrrolizin-7a(5H)-yl)methoxy)quin-azolin-7-yl)-7-fluorobenzo-[b]thiophene-3-carbonitrile]: the half-maximal inhibitory concentration (IC50) in assay [1] (compound nos. 401-703) and in assay [2] (compound nos. 401-703) was < 500 nM throughout.

Turning to `Cc1ccc2[nH]nc(N)c2c1-c1ccc2c(N3CC4CCC(C3)N4)nc(OC[C@@]34CCCN3C[C@H](F)C4)nc2c1F` [Compound 703, 4-(4-(3,8-diazabicyclo-[3.2.1]octan-3-yl)-8-fluoro-2-(((2R,7aS)-2-fluorotetra-hydro-1H-pyrrolizin-7a(5H)-yl)methoxy)quinazolin-7-yl)-5-methyl-1H-indazol-3-amine], the IC50 in assay [1] (compound nos. 401-703) and in assay [2] (compound nos. 401-703) was > 500 nM in each case.

Consider `Fc1c(-c2cccc3sccc23)c(Cl)cc2c(N3CC4CCC(C3)N4)nc(OC[C@@]34CCCN3C[C@H](F)C4)nc12` [Compound 579, 7-(benzo[b]thiophen-4-yl)-4-(3,8-diazabicyclo[3.2.1]-octan-3-yl)-6-chloro-8-fluoro-2-(((2R,7aS)-2-fluorotetrahydro-1H-pyrrol-izin-7a(5H)-yl)methoxy)-quinazoline], for which the half-inhibitory concentration (IC50) in assay [1] (compound nos. 401-703) and in assay [2] (compound nos. 401-703) was > 500 nM in each case.

As to `Cc1ccc(C(N)=O)cc1-c1c(Cl)cc2c(N3CC4CCC(C3)N4)nc(OCC34CCCN3CCC4)nc2c1F` [Compound 417, 3-(4-(3,8-diazabicyclo-[3.2.1]octan-3-yl)-6-chloro-8-fluoro-2-((tetrahydro-1H-pyrrolizin-7a(5H)-yl)meth-oxy)quinazolin-7-yl)-4-methylbenzamide], the IC50 was > 500 nM in assay [1] (compound nos. 401-703) and < 500 nM in assay [2] (compound nos. 401-703).

Regarding `CN1CCC[C@H]1COc1nc(N2CCN(C(=O)CN)CC(F)(F)C2)c2cc(Cl)c(-c3cccc4sc(N)nc34)c(F)c2n1` [Compound 141, 2-amino-1-(4-(7-(2-amino-benzo[d]thiazol-4-yl)-6-chloro-8-fluoro-2-(((S)-1-methylpyrrolidin-2-yl)meth-oxy)quinazolin-4-yl)-6,6-difluoro-1,4-diazepan-1-yl)-ethan-1-one], the results for the IC50 in assay [1] (setting [3]) and in assay [2] (setting [3]) were > 500 nM and < 500 nM, respectively.

With `Fc1c(-c2cccc3scc(Cl)c23)c(Cl)cc2c(N3CC4CCC(C3)N4)nc(OC[C@@]34CCCN3C[C@H](F)C4)nc12` [Compound 423, 4-(3,8-diazabicyclo[3.2.1]-octan-3-yl)-6-chloro-7-(3-chlorobenzo[b]thiophen-4-yl)-8-fluoro-2-(((2R,7aS)-2-fluorotetrahydro-1H-pyrrolizin-7a(5H)-yl)meth-oxy)quinazoline], the figures for the IC50 in assay [1] (compound nos. 401-703) and in assay [2] (compound nos. 401-703) were > 500 nM and < 500 nM, respectively.

As for `Oc1ccc2c(c1)N(c1ccc3c(N4CCCCCC4)nc(OCC45CCCN4CCC5)nc3c1F)CCC2` [Compound 584, 1-(4-(azepan-1-yl)-8-fluoro-2-((tetrahydro-1H-pyrrol-izin-7a(5H)-yl)methoxy)-quinazolin-7-yl)-1,2,3,4-tetrahydroquinolin-7-ol], the IC50 in assay [1] (compound nos. 401-703) and in assay [2] (compound nos. 401-703) was > 500 nM in each case.

For the molecule `Nc1nc2c(-c3c(Cl)cc4c(N5CC6CNC(C6)C5)nc(OC[C@@]56CCCN5C[C@H](F)C6)nc4c3F)ccc(F)c2s1` (stereo partly drawn) [Compound 556, 4-(4-(3,6-diazabicyclo-[3.2.1]octan-3-yl)-6-chloro-8-fluoro-2-(((2R,7aS)-2-fluorotetrahydro-1H-pyrrol-izin-7a(5H)-yl)methoxy)-quinazolin-7-yl)-7-fluoro-benzo[d]thiazol-2-amine], the IC50 in assay [1] (compound nos. 401-703) was < 500 nM; in assay [2] (compound nos. 401-703), > 500 nM.

Turning to `CN1CCC[C@H]1COc1nc(N2CCCC(NC3CNC3)CC2)c2cc(Cl)c(-c3cccc4sc(N)nc34)c(F)c2n1` (stereo partly drawn) [Compound 554, 4-(4-(4-(azetidin-3-yl-amino)azepan-1-yl)-6-chloro-8-fluoro-2-(((S)-1-methylpyrrolidin-2-yl)-methoxy)quinazolin-7-yl)-benzo[d]thiazol-2-amine], the IC50 in assay [1] (compound nos. 401-703) and in assay [2] (compound nos. 401-703) was > 500 nM throughout.

Take `CN1CCC[C@H]1COc1nc(N2CCC(O)C(F)CC2)c2cc(Cl)c(-c3cccc4sc(N)nc34)c(F)c2n1` (stereo partly drawn) [Compound 466, 1-(7-(2-aminobenzo[d]-thiazol-4-yl)-6-chloro-8-fluoro-2-(((S)-1-methylpyr-rolidin-2-yl)methoxy)quin-azolin-4-yl)-5-fluoroazepan-4-ol]: the IC50 in assay [1] (compound nos. 401-703) and in assay [2] (compound nos. 401-703) was < 500 nM throughout.

As for `CN1CCC[C@H]1COc1nc(N2CCCCC(N)C2)c2cc(Cl)c(-c3cccc4sc(N)nc34)c(F)c2n1` (stereo partly drawn) [Compound 672, 4-(4-(3-aminoazepan-1-yl)-6-chloro-8-fluoro-2-(((S)-1-methylpyrrolidin-2-yl)meth-oxy)quinazolin-7-yl)ben-zo[d]thiazol-2-amine], the IC50 in assay [1] (compound nos. 401-703) is < 500 nM; in assay [2] (compound nos. 401-703), > 500 nM.

On to `Cc1ccc2oc(N)nc2c1-c1c(Cl)cc2c(N3CCNCC(F)(F)C3)nc(OC[C@@H]3CCCN3C)nc2c1F` [Compound 462, 4-(6-chloro-4-(6,6-difluoro-1,4-diazepan-1-yl)-8-fluoro-2-(((S)-1-methylpyrrolidin-2-yl)methoxy)quinazolin-7-yl)-5-methylbenzo[d]oxazol-2-amine], for which the IC50 in assay [1] (compound nos. 401-703) and in assay [2] (compound nos. 401-703) was < 500 nM in each case.

`N#CC1COCCN(c2nc(OCC34CCCN3C[C@H](F)C4)nc3c(F)c(-c4ccc(F)c5sc(N)nc45)c(Cl)cc23)C1` (stereo partly drawn) [Compound 513, 4-(7-(2-amino-7-fluoroben-zo[d]thiazol-4-yl)-6-chloro-8-fluoro-2-(((2R)-2-fluoro-tetrahydro-1H-pyrrolizin-7a(5H)-yl)methoxy)quin-azolin-4-yl)-1,4-oxazepane-6-carbonitrile]: the IC50 in assay [1] (compound nos. 401-703) is < 500 nM; in assay [2] (compound nos. 401-703) it was > 500 nM.

As for `Nc1ccc(-c2ccccc2-c2c(Cl)cc3c(N4CCCCCC4)nc(OCC45CCCN4CCC5)nc3c2F)cc1` [Compound 450, 2′-(4-(azepan-1-yl)-6-chloro-8-fluoro-2-((tetrahydro-1H-pyrrolizin-7a(5H)-yl)meth-oxy)quinazolin-7-yl)-[1,1′-biphenyl]-4-amine], the IC50 in assay [1] (compound nos. 401-703) is > 500 nM; in assay [2] (compound nos. 401-703), < 500 nM.

Source of the values: patent publication US20240254129A1, “HETEROCYCLIC COMPOUNDS AND USES THEREOF” (Kumquat Biosciences Inc., priority 2021, published 2024).
